Test results taken from PMC6978316, “Development of chimeric peptides to facilitate the neutralisation of lipopolysaccharides during bactericidal targeting of multidrug-resistant Escherichia coli” (Communications Biology, 2020).
Where a SMILES comes first, the peptide text is derived from it. Bridges are numbered along the chain shown (N, C = ends).

Assays:
pepsin = format: in vitro ADME
[1] = system: S. aureus, Enterococcus faecalis, and Streptococcus suis; format: cell-based
Procedure: (§1) The MIC values of A6, G6, the parental peptides (N6 and LBP14), LBPN6, scramble controls (N6CK, A6CK, and G6CK), and PMB were determined by the microtiter broth dilution method. The tested strains included Gram-negative bacteria, Gram-positive bacteria, and fungi and were cultured to the logarithmic growth phase, diluted to 10^5 CFU per ml, and added into 96-well plates (90 μl per well). Peptides or antibiotic were diluted with PBS by 2-fold dilution and were added to each well (10 μl per well). Polymyxin B (PMB) and PBS were used as the positive and negative control, respectively. […] All experiments were repeated three times.

S. pullorum CVCC533 = assay: MIC, microtiter broth dilution; format: cell-based, Salmonella pullorum; details: 37 °C, 16–18 h, three independent experiments
Procedure: as §1

[2] = system: Streptococcus suis CVCC606; assay: MIC, microtiter broth dilution; format: cell-based; details: 37 °C, 16–18 h, three independent experiments
Procedure: as §1

[3] = system: Staphylococcus aureus ATCC43300; assay: MIC, microtiter broth dilution; format: cell-based; details: 37 °C, 16–18 h, three independent experiments
Procedure: as §1

[4] = system: Enterococcus faecalis CVCC3936; assay: MIC, microtiter broth dilution; format: cell-based; details: 37 °C, 16–18 h, three independent experiments
Procedure: as §1

[5] = system: Pseudomonas aeruginosa CICC10419; assay: MIC, microtiter broth dilution; format: cell-based; details: 37 °C, 16–18 h, three independent experiments
Procedure: as §1

[6] = Biodistribution of FITC-labeled peptides (in vivo fluorescence imaging); details: nude mice, FITC-labeled peptide 5 mg per kg intraperitoneally
Procedure: The nude mice were intraperitoneally injected with 5 mg per kg FITC-labeled A6, G6, and N6, respectively. Free FITC was used as a negative control.

in vitro = details: for peptide remained intact in serum / remaining at 1 h / remaining at 2 h / remaining at 4 h: mice serum, 37 °C, RP-HPLC; for half-life / remaining at 1 h / remaining at 2 h / remaining at 4 h: mouse, serum
Procedure: The thermal, pH and enzyme stability of A6 and G6 were evaluated against MDR E. coli CVCC195 using a previous method with minor revisions. The N6, A6, and G6 solutions were treated at different temperatures (20–100 °C) for 1 h, dissolved and incubated at different pH values (2–10) for 3 h, or incubated with trypsin or pepsin for 4 h. The inhibition zone diameters were measured after incubation at 37 °C for 18–24 h. The peptides were dissolved in H2O or mice serum at 37 °C to detect their serum stability and samples were removed at different time points to determine their residual activity by the inhibition zone or reverse-phase high-performance liquid chromatography (RP-HPLC) methods[62],[63].

E. coli CVCC1515 = assay: MIC, microtiter broth dilution; format: cell-based, Escherichia coli; details: 37 °C, 16–18 h, three independent experiments
Procedure: as §1

MDR E. coli CVCC195 = assay: Sepsis mouse model, survival after lethal E. coli challenge; format: in vivo, ICR mice; details: mice, E. coli 5 × 10^8 CFU i.p.; 0.25 μmol per kg; 7 d; n = 5
Procedure: The mouse survival was recorded for 7 d. The mice injected with LPS or saline were used as negative or blank controls, respectively.

[7] = peptide remaining in serum, Mean, 1 h, mean of n = 3 (source data Fig. 2f)
[8] = peptide remaining in serum, Mean, 2 h, mean of n = 3 (source data Fig. 2f)
[9] = peptide remaining in serum, Mean, mean of n = 3 (source data Fig. 2f)

| Compound | antibacterial activity after pepsin (inhibition zone diameter), Mean (pepsin) | antibacterial activity without enzyme (inhibition zone diameter), Mean (pepsin) | MICs against S. aureus, Enterococcus faecalis, and Streptococcus suis [1] | MIC (S. pullorum CVCC533) | MIC [2] | MIC [3] | MIC [4] | MIC [5] | time after injection at which the fluorescence disappeared / peptide was excreted [6] | peptide remained intact in serum (in vitro; 1 h) | peptide remained intact in serum (in vitro; 2 h) | half-life (in vitro) | remaining at 1 h (in vitro; [7]) | remaining at 2 h (in vitro; [8]) | remaining at 4 h (in vitro; [9]) | MIC (E. coli CVCC1515) | remaining at 2 h (in vitro; peptide remained intact in serum, 2 h) | survival rate (MDR E. coli CVCC195) |
| --- | --- | --- | --- | --- | --- | --- | --- | --- | --- | --- | --- | --- | --- | --- | --- | --- | --- | --- |
| CC(C)[C@@H]1NC(=O)CNC(=O)[C@H](CC(N)=O)NC(=O)[C@H](CCCNC(=N)N)NC(=O)[C@H](Cc2ccc(O)cc2)NC(=O)[C@H](C(C)C)NC(=O)[C@@H](NC(=O)[C@@H](NC(=O)[C@H](CC(N)=O)NC(=O)[C@H](Cc2c[nH]c3ccccc23)NC(=O)[C@H](C)NC(=O)[C@H](Cc2ccccc2)NC(=O)CNC(=O)[C@H](CO)NC(=O)CNC(=O)CNC(=O)CNC(=O)CNC(=O)[C@H](CCCCN)NC(=O)[C@H](Cc2ccccc2)NC(=O)[C@H](Cc2ccccc2)NC(=O)[C@H](CO)NC(=O)[C@H](C)NC(=O)[C@H](CCCNC(=N)N)NC(=O)[C@@H](NC(=O)[C@H](CCCCN)NC(=O)[C@H](Cc2c[nH]c3ccccc23)NC(=O)[C@H](CCCNC(=N)N)NC(=O)CNC(=O)[C@H](CCC(N)=O)NC(=O)[C@@H](NC(=O)[C@@H](N)CCCNC(=N)N)C(C)C)C(C)C)C(C)C)CSSC[C@@H](C(=O)N[C@@H](Cc2c[nH]cn2)C(=O)N[C@@H](CCCNC(=N)N)C(=O)N[C@@H](CCCNC(=N)N)C(=O)N[C@@H](C)C(=O)N[C@@H](CC(N)=O)C(=O)O)NC(=O)[C@H](C(C)C)NC(=O)[C@H](CCCNC(=N)N)NC1=O [G6] (H-RVQGRWKVRASFFKGGGGSGFAWNVCVYRNGVRVCHRRAN-OH; disulfide 26-35) | 1.607 | 1.439 | greater than 3.52 μM | 16 μg per ml | 16 μg per ml | 16 μg per ml | 16 μg per ml | 16 μg per ml | 48 h | 68.5% | 29.5% | < 2 h | 68.6% | 29.6% | 11.2% | 16 μg per ml |  |  |
| H-RVQGRWKVRASFFKEAAAKEAAAKGFAWNVCVYRNGVRVCHRRAN-OH (disulfide 31-40) [A6] | 1.623 | 1.456 | greater than 3.52 μM |  |  |  |  |  | 48 h |  |  | < 2 h | 27% | 7.18% | 4.77% |  | 7% |  |
| polymyxin B [PMB] |  |  |  |  |  |  |  |  |  |  |  |  |  |  |  |  |  | 100% |
